Measured values from PubChem BioAssay (NCI).
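96-well plates; 48 h exposure; 5 concentrations. Endpoints by linear interpolation between flanking doses. Not reached: highest tested concentration assigned. GI50 = concentration required for 50% inhibition of growth. The concentration for full growth arrest is given as TGI.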

Key:
Test in all cases: inhibition of tumour cell growth, NCI panel, 48 h
K-562 leukemia = tested on: K-562 leukemia
TK-10 renal = tested on: TK-10 renal
UO-31 renal = tested on: UO-31 renal
NCI-H460 lung = tested on: NCI-H460 lung
HL-60(TB) leukemia = tested on: HL-60(TB) leukemia
BT-549 breast = tested on: BT-549 breast
SF-295 CNS = tested on: SF-295 CNS
LOX IMVI melanoma = tested on: LOX IMVI melanoma
OVCAR-8 ovarian = tested on: OVCAR-8 ovarian
UACC-257 melanoma = tested on: UACC-257 melanoma

Compound	GI50 (K-562 leukemia) [µM]	TGI (K-562 leukemia) [µM]	GI50 (TK-10 renal) [µM]	TGI (TK-10 renal) [µM]	GI50 (UO-31 renal) [µM]	TGI (UO-31 renal) [µM]	GI50 (NCI-H460 lung) [µM]	TGI (NCI-H460 lung) [µM]	GI50 (HL-60(TB) leukemia) [µM]	TGI (HL-60(TB) leukemia) [µM]	GI50 (BT-549 breast) [µM]	TGI (BT-549 breast) [µM]	GI50 (SF-295 CNS) [µM]	TGI (SF-295 CNS) [µM]	GI50 (LOX IMVI melanoma) [µM]	TGI (LOX IMVI melanoma) [µM]	GI50 (OVCAR-8 ovarian) [µM]	TGI (OVCAR-8 ovarian) [µM]	GI50 (UACC-257 melanoma) [µM]	TGI (UACC-257 melanoma) [µM]
Clc1nc(Cl)c2ncn(C/C=C/COc3cccc(OC/C=C/Cn4cnc5c(Cl)nc(Cl)nc54)c3)c2n1	29.7	> 100	> 100	> 100	> 100	> 100	> 100	> 100	14.7	27.8	66.1	> 100	> 100	> 100	25.9	> 100	> 100	> 100	> 100	> 100
Cn1cc(C2=C(c3cccc(OCC(O)CO)c3)C(=O)NC2=O)c2ccccc21 (centres undefined)	> 25	> 25	> 25	> 25	> 25	> 25	> 25	> 25	> 25	> 25	> 25	> 25	> 25	> 25	> 25	> 25	> 25	> 25	> 25	> 25
CC(C)(O)CC(=O)NCCn1ccc2ncnc(Nc3ccc(Oc4cccc(C(F)(F)F)c4)c(Cl)c3)c21	4.54	> 10	0.363	> 10	1.12	> 10	3.37	> 10	2.88	> 10	5.52	> 10	3.79	> 10	2.34	> 10	3.65	> 10	–	> 10
COc1ccc(/C=C2\CCCC3=C2NC(N)=NC3c2ccc(OC)c(OC)c2)cc1OC (centres undefined)	6.17	> 100	4.68	27.9	11.8	> 57.1	25.2	> 100	4.52	> 100	3.62	> 100	8.69	> 100	4.63	41.1	2.08	> 100	5	> 81.1
CN(C)c1ccc2c(c1)OC(N)=C(C#N)C2c1ccc2c(c1)CCO2 (centres undefined)	< 0.023	> 100	15.9	> 100	0.362	35.4	< 0.0231	18.3	0.0939	0.491	0.0385	12.4	< 0.0208	1.95	0.053	17.9	0.39	39.9	27	> 100
Cc1c2c(nn1C)CSCc1cc(n(C)n1)CSc1cc(c3ccccc3c1)OCCCc1c(C(=O)O)n(C)c3c-2c(Cl)ccc13	3.78	16.8	4.75	18.3	5.07	17.8	3.23	10.7	0.0427	0.294	2.52	11.2	2.52	8.37	2.87	12.1	4.62	18.9	4.16	16
